Experimental data as given in patent US10442807B2, “Aryl substituted bicyclic compounds as herbicides” (FMC Corporation, priority 2015, dated 2019).

How the values were obtained:
Assay type in all cases: in vivo
[1] = tested on: barnyardgrass (Echinochloa crus-galli); test: Test B flooded paddy test, visual plant response rating; details: 250 g ai/ha; applied to paddy water at 2-leaf stage; rated after 13 to 15 days; scale 0 to 100, 0 is no effect, 100 is complete control
Summary of the method: (§1)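 Flooded 3 cm above soil; cpd added to paddy water; depth maintained; greenhouse 13–15 d; visual rating vs control, 0–100 (0 none, 100 complete control); "-" = not tested.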

[2] = tested on: ducksalad (Heteranthera limosa); test: as above; details: 250 g ai/ha; applied to paddy water at 2-leaf stage; rated after 13 to 15 days; scale 0 to 100, 0 is no effect, 100 is complete control
Summary of the method: as §1

rice (Oryza sativa) = test: as above; details: 250 g ai/ha; applied to paddy water at 2-leaf stage; rated after 13 to 15 days; scale 0 to 100, 0 is no effect, 100 is complete control
Summary of the method: as §1

[3] = tested on: sedge, umbrella (small-flower umbrella sedge, Cyperus difformis); test: as above; details: 250 g ai/ha; applied to paddy water at 2-leaf stage; rated after 13 to 15 days; scale 0 to 100, 0 is no effect, 100 is complete control
Summary of the method: as §1

[4] = tested on: ryegrass, Italian (Italian ryegrass, Lolium multiflorum); test: Test A postemergence application, visual injury rating; details: approx. 10 d, 0 = no effect, 100 = complete control
Summary of the method: (§2)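 In a loam soil and sand blend, either planted seeds got a preemergence directed soil spray or plants at the one- to two-leaf stage (2 to 10 cm tall) were sprayed, using test chemicals in a non-phytotoxic solvent mixture with surfactant. After about 10 d in a greenhouse, injury was visually rated against untreated controls on a 0-100 scale.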

[5] = tested on: pigweed (Amaranthus retroflexus); test: as above; details: approx. 10 d, 0 = no effect, 100 = complete control
Summary of the method: as §2

[6] = tested on: barnyardgrass (Echinochloa crus-galli); test: as above; details: approx. 10 d, 0 = no effect, 100 = complete control
Summary of the method: as §2

kochia (Kochia scoparia) [7] = test: as above; details: approx. 10 d, 0 = no effect, 100 = complete control
Summary of the method: as §2

[8] = tested on: foxtail, giant (giant foxtail, Setaria faberii); test: as above; details: approx. 10 d, 0 = no effect, 100 = complete control
Summary of the method: as §2

[9] = tested on: blackgrass (Alopecurus myosuroides); test: as above; details: approx. 10 d, 0 = no effect, 100 = complete control
Summary of the method: as §2

[10] = tested on: galium (catchweed bedstraw, Galium aparine); test: as above; details: approx. 10 d, 0 = no effect, 100 = complete control
Summary of the method: as §2

[11] = tested on: ragweed (common ragweed, Ambrosia elation); test: as above; details: approx. 10 d, 0 = no effect, 100 = complete control
Summary of the method: as §2

corn (Zea mays) = test: as above; details: approx. 10 d, 0 = no effect, 100 = complete control
Summary of the method: as §2

[12] = tested on: wheat (Triticum aestivum); test: as above; details: approx. 10 d, 0 = no effect, 100 = complete control
Summary of the method: as §2

[13] = tested on: ryegrass, Italian (Italian ryegrass, Lolium multiflorum); test: Test A preemergence, directed soil spray, visual injury rating; details: approx. 10 d, 0 = no effect, 100 = complete control
Summary of the method: as §2

[14] = tested on: pigweed (Amaranthus retroflexus); test: as above; details: approx. 10 d, 0 = no effect, 100 = complete control
Summary of the method: as §2

[15] = tested on: barnyardgrass (Echinochloa crus-galli); test: as above; details: approx. 10 d, 0 = no effect, 100 = complete control
Summary of the method: as §2

kochia (Kochia scoparia) [16] = test: as above; details: approx. 10 d, 0 = no effect, 100 = complete control
Summary of the method: as §2

[17] = tested on: foxtail, giant (giant foxtail, Setaria faberii); test: as above; details: approx. 10 d, 0 = no effect, 100 = complete control
Summary of the method: as §2

[18] = tested on: ragweed (common ragweed, Ambrosia elation); test: as above; details: approx. 10 d, 0 = no effect, 100 = complete control
Summary of the method: as §2

| SMILES | Plant response rating, Flood, Barnyardgrass [1] | Plant response rating, Flood, Ducksalad [2] | Plant response rating, Flood, Rice (rice (Oryza sativa)) | Plant response rating, Flood, Sedge, Umbrella [3] | Ryegrass, Italian plant response rating (0 to 100 scale) ([4]; 125 g ai/ha) | Ryegrass, Italian plant response rating (0 to 100 scale) ([4]; 500 g ai/ha) | Pigweed plant response rating (0 to 100 scale) ([5]; 125 g ai/ha) | Pigweed plant response rating (0 to 100 scale) ([5]; 500 g ai/ha) | Barnyardgrass plant response rating (0 to 100 scale) ([6]; 125 g ai/ha) | Barnyardgrass plant response rating (0 to 100 scale) ([6]; 500 g ai/ha) | Kochia plant response rating (0 to 100 scale) (kochia (Kochia scoparia) [7]; 125 g ai/ha) | Kochia plant response rating (0 to 100 scale) (kochia (Kochia scoparia) [7]; 500 g ai/ha) | Foxtail, Giant plant response rating (0 to 100 scale) ([8]; 125 g ai/ha) | Foxtail, Giant plant response rating (0 to 100 scale) ([8]; 500 g ai/ha) | Blackgrass plant response rating (0 to 100 scale) ([9]; 125 g ai/ha) | Blackgrass plant response rating (0 to 100 scale) ([9]; 500 g ai/ha) | Galium plant response rating (0 to 100 scale) ([10]; 125 g ai/ha) | Galium plant response rating (0 to 100 scale) ([10]; 500 g ai/ha) | Ragweed plant response rating (0 to 100 scale) ([11]; 125 g ai/ha) | Ragweed plant response rating (0 to 100 scale) ([11]; 500 g ai/ha) | other results |
| --- | --- | --- | --- | --- | --- | --- | --- | --- | --- | --- | --- | --- | --- | --- | --- | --- | --- | --- | --- | --- | --- |
| O=C(Nc1ccccc1F)C1c2nncn2CC1c1ccc(Cl)cc1 (stereo not drawn) [Compound 20] | 40 | 70 | 0 | 0 | 0 | 0 | 0 | 0 | 20 | 60 | 0 | 40 | 20 | 70 | 0 | 0 | 30 | 50 | 0 | 20 | Corn plant response rating (0 to 100 scale) (corn (Zea mays); 125 g ai/ha): 20; Corn plant response rating (0 to 100 scale) (corn (Zea mays); 500 g ai/ha): 80; Wheat plant response rating (0 to 100 scale) ([12]; 125 g ai/ha): 0; Wheat plant response rating (0 to 100 scale) ([12]; 500 g ai/ha): 20; Ryegrass, Italian plant response rating (0 to 100 scale) ([13]; 125 g ai/ha): 0; Ryegrass, Italian plant response rating (0 to 100 scale) ([13]; 500 g ai/ha): 0; Pigweed plant response rating (0 to 100 scale) ([14]; 125 g ai/ha): 0; Pigweed plant response rating (0 to 100 scale) ([14]; 500 g ai/ha): 0; Barnyardgrass plant response rating (0 to 100 scale) ([15]; 125 g ai/ha): 20; Barnyardgrass plant response rating (0 to 100 scale) ([15]; 500 g ai/ha): 70; Kochia plant response rating (0 to 100 scale) (kochia (Kochia scoparia) [16]; 125 g ai/ha): 30; Kochia plant response rating (0 to 100 scale) (kochia (Kochia scoparia) [16]; 500 g ai/ha): 90; Foxtail, Giant plant response rating (0 to 100 scale) ([17]; 125 g ai/ha): 30; Foxtail, Giant plant response rating (0 to 100 scale) ([17]; 500 g ai/ha): 90; Ragweed plant response rating (0 to 100 scale) ([18]; 125 g ai/ha): 0; Ragweed plant response rating (0 to 100 scale) ([18]; 500 g ai/ha): 50 |
| CCc1ccc(C2Cn3cnnc3C2C(=O)Nc2cccc(F)c2F)cc1 (stereo not drawn) [Compound 11] | 0 | 95 | 0 | 70 | 0 | 50 | 0 | 0 | 70 | 80 | 40 | 50 | 40 | 70 | 0 | 20 | 20 | 50 | 0 | 30 | Corn plant response rating (0 to 100 scale) (corn (Zea mays); 125 g ai/ha): 0; Corn plant response rating (0 to 100 scale) (corn (Zea mays); 500 g ai/ha): 30; Wheat plant response rating (0 to 100 scale) ([12]; 125 g ai/ha): 0; Wheat plant response rating (0 to 100 scale) ([12]; 500 g ai/ha): 20; Ryegrass, Italian plant response rating (0 to 100 scale) ([13]; 125 g ai/ha): 0; Ryegrass, Italian plant response rating (0 to 100 scale) ([13]; 500 g ai/ha): 30; Pigweed plant response rating (0 to 100 scale) ([14]; 125 g ai/ha): 30; Pigweed plant response rating (0 to 100 scale) ([14]; 500 g ai/ha): 30; Barnyardgrass plant response rating (0 to 100 scale) ([15]; 125 g ai/ha): 70; Barnyardgrass plant response rating (0 to 100 scale) ([15]; 500 g ai/ha): 90; Kochia plant response rating (0 to 100 scale) (kochia (Kochia scoparia) [16]; 125 g ai/ha): 60; Kochia plant response rating (0 to 100 scale) (kochia (Kochia scoparia) [16]; 500 g ai/ha): 70; Foxtail, Giant plant response rating (0 to 100 scale) ([17]; 125 g ai/ha): 80; Foxtail, Giant plant response rating (0 to 100 scale) ([17]; 500 g ai/ha): 90; Ragweed plant response rating (0 to 100 scale) ([18]; 125 g ai/ha): 0; Ragweed plant response rating (0 to 100 scale) ([18]; 500 g ai/ha): 40 |
| O=C(Nc1ccccc1F)C1C2=NCCCN2CC1c1cccc(C(F)(F)F)c1 (stereo not drawn) [Compound 1] | 0 | 70 | 0 | 50 | 0 | 0 | 0 | 0 | 0 | 60 | 0 | 0 | 0 | 40 | 0 | 0 | 0 | 0 | 0 | 0 | Corn plant response rating (0 to 100 scale) (corn (Zea mays); 125 g ai/ha): 0; Corn plant response rating (0 to 100 scale) (corn (Zea mays); 500 g ai/ha): 20; Wheat plant response rating (0 to 100 scale) ([12]; 125 g ai/ha): 0; Wheat plant response rating (0 to 100 scale) ([12]; 500 g ai/ha): 0; Ryegrass, Italian plant response rating (0 to 100 scale) ([13]; 125 g ai/ha): 0; Ryegrass, Italian plant response rating (0 to 100 scale) ([13]; 500 g ai/ha): 0; Pigweed plant response rating (0 to 100 scale) ([14]; 125 g ai/ha): 0; Pigweed plant response rating (0 to 100 scale) ([14]; 500 g ai/ha): 0; Barnyardgrass plant response rating (0 to 100 scale) ([15]; 125 g ai/ha): 0; Barnyardgrass plant response rating (0 to 100 scale) ([15]; 500 g ai/ha): 70; Kochia plant response rating (0 to 100 scale) (kochia (Kochia scoparia) [16]; 125 g ai/ha): 0; Kochia plant response rating (0 to 100 scale) (kochia (Kochia scoparia) [16]; 500 g ai/ha): 0; Foxtail, Giant plant response rating (0 to 100 scale) ([17]; 125 g ai/ha): 0; Foxtail, Giant plant response rating (0 to 100 scale) ([17]; 500 g ai/ha): 60; Ragweed plant response rating (0 to 100 scale) ([18]; 125 g ai/ha): 0; Ragweed plant response rating (0 to 100 scale) ([18]; 500 g ai/ha): 0 |
